What was measured:
[1] = tested on: Pancreatic islets of Langerhans; test: Glucose-stimulated insulin secretion (GSIS) by isolated pancreatic islets, insulin ELISA; assay type: cell-based, rat; conditions: concentration of 1 μM
Protocol: Pancreatic islets of Langerhans were isolated from adult male Sprague-Dawley rats using a standard collagenase infusion and digestion procedure as described in Example 16. Islets were cultured at 37° C. for 1-2 days in CMRL-1066 medium supplemented with 5.5 mM glucose, 10% fetal bovine serum, 100 U/ml penicillin and 100 μg/ml streptomycin, in a humidified atmosphere containing 5% CO2. Islets were manually picked and washed in Krebs Ringer Bicarbonate buffer (KRB: 134 mM NaCl, 4.7 mM KCl, 1.2 mM KH2PO4, 1.2 mM MgSO4, 1 mM CaCl2, 10 mM NaHCO3, pH 7.4) in preparation for measurement of glucose-stimulated insulin secretion (GSIS). […] Cell-conditioned media samples were then collected by centrifugation and their insulin content was determined using enzyme-linked immunosorbent assay (ELISA) kits (CrystalChem or ALPCO rat insulin ELISA) according to the kit supplier's instructions. Following treatment with a preferred compound, the concentration of insulin detected in the islet-conditioned medium was at least 1.5 times the insulin concentration detected in the medium conditioned by islets that were exposed to 8 mM glucose.
At a concentration of 1 μM, CGP37157 stimulated islet GSIS by 222 (±48) % relative to GSIS detected with 8 mM glucose. […]

[2] = tested on: INS-1 rat insulinoma cells; test: Insulin secretion by INS-1 cells, insulin radioimmunoassay; assay type: cell-based; conditions: 8 mM glucose vs basal; FIG. 1
Protocol: INS-1 rat insulinoma cells were provided by Prof. Claes Wollheim, University Medical Centre, Geneva, Switzerland, and cultured at 37° C. in a humidified 5% CO2 environment in RPMI cell culture media (Gibco BRL, Gaithersburg, Md.) supplemented with 10% fetal bovine serum (Irvine Scientific, Irvine, Calif.), 2 mM L-glutamine, 100 U/ml penicillin, 100 μg/ml streptomycin, 10 mM HEPES, 1 mM sodium pyruvate and 50 μM β-mercaptoethanol (all reagents Sigma, St. Louis, Mo., unless otherwise noted).
INS-1 cells were seeded into 24-well plates containing RPMI media supplemented as described at 0.5×10^6 cells/well and cultured at 37° C., 5% CO2 for 2 days. Cells at or near confluence (0.7×10^6 cells/well) were rinsed with glucose-free KRH buffer (134 mM NaCl, 4.7 mM KCl, 1.2 mM KH2PO4, 1.2 mM MgSO4, 1.0 mM CaCl2, 10 mM HEPES-pH 7.4, 25 mM NaHCO3, 0.5% BSA), then incubated in the same buffer for 1 hr at 37° C. in a humidified 5% CO2/95% air atmosphere. […] Insulin concentrations in the supernatants were measured and normalized to cell number using an insulin-specific radioimmunoassay kit (ICN Biochemicals, Irvine, Calif.) according to the manufacturer's instructions.

[3] = tested on: rat pancreatic islet cells; test: Insulin secretion by rat pancreatic islet cells (FIG. 2); assay type: cell-based; conditions: basal (5 mM) or supraphysiological (8 mM) glucose
[4] = tested on: C57BLKs-db/db mice; test: Glucose tolerance in mutant db/db mice after oral administration; assay type: in vivo, mouse; conditions: 100 mg/kg orally one hour before 1 gm glucose/kg i.p.; relative to vehicle control; p<0.05
Description: This Example illustrates the effects of a representative compound on glucose tolerance in an established animal model of type II diabetes mellitus, the db/db mutant mouse. As a brief background, the recessive db mutation has been localized to murine chromosome 4, and homozygous recessive (db/db) individuals are characterized by, inter alia, obesity, hyperphagia, transient increases in plasma insulin concentrations, hyperglycemia, abnormal immune and renal functions, diabetic neuropathy and myocardial disease (see, e.g., Hummel et al., 1966 Science 153:1127; Herberg et al., 1977 Metabolism 26:59; Leiter et al., 1981 Metabolism 30:554; Guenet et al., 1982 Mouse News Letter 67:30; Guenet et al., 1984 Mouse News Letter 70:95; Bray et al., 1971 Physiol. Rev. 51:598; Bailey et al., 1989 J. Endocrinol. 123:19-24; Bray et al., 1979 Physiol. Rev. 59:719; Sima et al., 1979 Lab. Invest. 40:627; Sima et al., 1978 Acta Nettropathol. […]
16o (dissolved in vehicle: 10% (v/v) EtOH, 10% (v/v) polyethylene glycol-400, 30% (v/v) propylene glycol, 50% (v/v) H2O) was administered orally at a dosage of 100 mg/kg body weight to eight-week old mutant C57BLKs-db/db mice (Harlan Bioproducts for Science, Inc., Indianapolis, Ind.). […] Glucose concentrations in each blood sample were determined using OneTouch® glucose test strips (LifeScan, Inc., Milpitas, Calif.) according to the manufacturer's instructions. […]

[5] = biological target: T1, mitochondrial calcium/sodium antiporter (Rattus norvegicus, UniProt Q6AXS0); test: Inhibition of mitochondrial calcium/sodium antiporter activity (NaCl-induced mitochondrial calcium efflux, calcium green 5N fluorescence); assay type: cell-based; conditions: Table 3, more preferred compounds; digitonin-permeabilized INS-1 cells, 20 mM NaCl; read-out: IC50 ≦ 1 μM
T1 sequence (Q6AXS0 1-585): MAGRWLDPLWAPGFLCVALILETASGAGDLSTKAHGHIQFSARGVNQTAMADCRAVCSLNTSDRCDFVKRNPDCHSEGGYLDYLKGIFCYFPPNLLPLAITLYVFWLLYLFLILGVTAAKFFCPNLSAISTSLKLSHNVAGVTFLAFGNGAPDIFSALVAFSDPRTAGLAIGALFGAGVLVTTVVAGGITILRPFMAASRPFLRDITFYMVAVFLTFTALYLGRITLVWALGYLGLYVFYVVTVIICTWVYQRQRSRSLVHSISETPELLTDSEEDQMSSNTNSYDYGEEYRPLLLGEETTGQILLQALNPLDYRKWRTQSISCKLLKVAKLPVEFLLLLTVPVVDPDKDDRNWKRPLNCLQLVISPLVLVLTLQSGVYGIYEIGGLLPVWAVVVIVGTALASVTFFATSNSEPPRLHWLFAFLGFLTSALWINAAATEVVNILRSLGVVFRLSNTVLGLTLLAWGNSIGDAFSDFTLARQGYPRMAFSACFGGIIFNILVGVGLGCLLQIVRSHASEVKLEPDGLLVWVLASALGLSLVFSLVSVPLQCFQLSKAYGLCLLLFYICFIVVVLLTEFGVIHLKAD
Outline: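 Digitonin-permeabilized INS-1 rat insulinoma cells in sucrose/HEPES/succinate buffer pH 7.4 were loaded with 60 μM CaCl2 plus calcium green 5N for 5 min, then given 1 μM ruthenium red to block uptake. Compounds were tested at 1, 10 or 100 μM in triplicate, and efflux triggered with 20 mM NaCl. Rate of fluorescence change was followed over 2 min.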

| Structure (SMILES) | stimulated islet GSIS relative to GSIS detected with 8 mM glucose [1] | glucose stimulated insulin secretion by INS-1 cells [2] | glucose stimulated insulin secretion on rat pancreatic islet cells [3] | peak blood glucose levels after the glucose bolus [4] | return of blood glucose to baseline [4] | IC50 [5] |
| --- | --- | --- | --- | --- | --- | --- |
| O=C1CSC(c2ccccc2Cl)c2cc(Cl)ccc2N1 (stereo not drawn) [CGP37157, 7-Chloro-5-(2-chlorophenyl)-1,5-dihydro-4,1-benzothiazepin-2(3H)-one] | 222 (±48) % | enhanced glucose stimulated insulin secretion | enhanced glucose stimulated insulin secretion | – | – | – |
| COc1cc(C(=O)NCCSC(c2cc(Cl)ccc2N)C2CCCCC2)cc(OC)c1OC (stereo not drawn) [Compound 16o] | – | – | – | lower peak blood glucose levels | returned to a lower baseline more rapidly | ≤ 1 µM |

— US6958352B2, “Compounds for inhibiting insulin secretion and methods related thereto” (SmithKline Beecham Corporation, priority 2002, dated 2005)
